Results as given in article PMC10545747, “Development of cyclopeptide inhibitors of cGAS targeting protein-DNA interaction and phase separation” (Nature Communications, 2023).
Several values for one entry are separate records, joined by “and”; a condition that tells them apart may be missing. Equal entries are not always repeated. Square brackets hold non-standard residues; d marks the D form. Peptide text beside a SMILES is read from it.

Key:
[1] = tested on: HSV-1-infected THP1 cells; test: qPCR of IFNB1/CXCL10/IL6 mRNA in THP1 cells stimulated by HSV-1 infection; type: cell-based, human; conditions: for CXCL10 mRNA (Fig. S2b) / IFNB1 mRNA (Fig. S2b) / IL6 mRNA (Fig. S2b): Mock
[2] = Cell viability (CCK-8), cytotoxicity; conditions: human, THP1 cells
Experimental: (§1) Cell viability was measured by cell counting kit-8 (TargetMol) according to the manufacturer’s instructions.
(§2) Supplementary Fig. 2. […]
(§3) (e-g) THP1 cells (e), L929 cells (f) and RAW264.7 cells (g) were exposed to the indicated doses of XQ2 for 48h, the cell viability was measured by CCK8 assay. Data are representative of three independent experiments in (a-g). (Data are presented as mean ± SD, n = 3 independent samples in (a-g), **p < 0.01, ***p < 0.001, ****p < 0.0001 using one-way ANOVA with Dunnett’s post hoc test).
(§4) Source data are provided as a Source Data file. […]
(§5) Relative viability(%) XQ2B
(§6) Supplementary Fig. 7. […] (a) THP1 cells were exposed to the indicated doses of XQ2 or XQ2B for 48h. The cell viability was measured by CCK8 assay. […]
(§7) Data are representative of three independent experiments with similar results in (e), or three independent experiments in (a -d, f, g) . (Data are presented as mean ± SD, n = 3 independent samples in (a-d, f, g), ns, not significant, **p < 0.01, ***p < 0.001, ****p < 0.0001 using one-way ANOV A with Dunnett’s post hoc test). Source data are provided as a Source Data file.

[3] = tested on: THP1 cells; test: Cell viability (CCK-8), cytotoxicity; conditions: for Cell viability (Fig. S2e): THP1 (48h)
Experimental: as §1, §2, §3, §4, §5, §6, §7

CC(C)C[C@@H]1NC(=O)[C@H](CCCNC(=N)N)NC(=O)[C@H](C(C)C)NC(=O)[C@@H]2CCCN2C(=O)[C@@H](Cc2ccccc2)NC(=O)[C@H](CC(C)C)NC(=O)[C@H](CCCNC(=N)N)NC(=O)[C@H](C(C)C)NC(=O)[C@H](C)NC(=O)[C@@H](Cc2ccccc2)NC1=O [XQ2, Cyclo (LfAVRLfPVR)] (cyclo(L[dF]AVRL[dF]PVR))
CXCL10 mRNA (Fig. S2b) ([1]; XQ2 2.5 μM): 3.137 and 2.991 and 2.833 | IFNB1 mRNA (Fig. S2b) ([1]; XQ2 2.5 μM): 1.426 and 1.751 and 1.799 | IL6 mRNA (Fig. S2b) ([1]; XQ2 2.5 μM): 2.387 and 2.459 and 3.439 | CXCL10 mRNA (Fig. S2b) ([1]; XQ2 5 μM): 1.923 and 2.134 and 2.246 | IFNB1 mRNA (Fig. S2b) ([1]; XQ2 5 μM): 1.17 and 1.093 and 1.0788 | CXCL10 mRNA (Fig. S2b) ([1]; XQ2 10 μM): 4.593 and 4.941 and 4.3739 | IFNB1 mRNA (Fig. S2b) ([1]; XQ2 10 μM): 1.523 and 2.285 and 2.284 | IL6 mRNA (Fig. S2b) ([1]; XQ2 10 μM): 4.656 and 4.111 and 3.925 | HSV-1-induced IFNB1, CXCL10, IL6 expression ([1]; THP1): inhibited the expression level of IFNΒ1 and CXCL10, as well as IL6 | IFNB1 mRNA, qPCR, Fig. 2b ([1]; THP1, HSV-1, 10 μM): 17.701 and 20.2819 and 20.0106 | viability at 48 h, 0.16 µM ([2]; Cell viability (Fig. S2e), THP1 (48h), XQ2 0.16 μM): 87.4% | viability at 48 h, 0.31 µM ([2]; Cell viability (Fig. S2e), THP1 (48h), XQ2 0.31 μM): 103% | viability at 48 h, 0.63 µM ([2]; Cell viability (Fig. S2e), THP1 (48h), XQ2 0.63 μM): 94.8% | viability at 48 h, 1.25 µM ([2]; Cell viability (Fig. S2e), THP1 (48h), XQ2 1.25 μM): 95.7% | viability at 48 h, 2.5 µM ([2]; Cell viability (Fig. S2e), THP1 (48h), XQ2 2.5 μM): 92.5% | viability at 48 h, 5 µM ([2]; Cell viability (Fig. S2e), THP1 (48h), XQ2 5 μM): 90.4% | viability at 48 h, 10 µM ([2]; Cell viability (Fig. S2e), THP1 (48h), XQ2 10 μM): 93.6% | viability at 48 h, 0.3125 µM ([2]; Cell viability (Fig. S7a), XQ2 312.5 nM): 103% | viability at 48 h, 0.625 µM ([2]; Cell viability (Fig. S7a), XQ2 625 nM): 94.8% | viability at 48 h, 1.25 µM ([2]; Cell viability (Fig. S7a), XQ2 1250 nM): 95.7% | viability at 48 h, 2.5 µM ([2]; Cell viability (Fig. S7a), XQ2 2500 nM): 92.5% | viability at 48 h, 5 µM ([2]; Cell viability (Fig. S7a), XQ2 5000 nM): 90.4% | viability at 48 h, 10 µM ([2]; Cell viability (Fig. S7a), XQ2 10000 nM): 93.6% | viability at 48 h, 20 µM ([2]; Cell viability (Fig. S7a), XQ2 20000 nM): 56.9% | viability at 48 h, 40 µM ([2]; Cell viability (Fig. S7a), XQ2 40000 nM): 4.01% | viability at 48 h, 80 µM ([2]; Cell viability (Fig. S7a), XQ2 80000 nM): 6.79% | viability at 48 h, 160 µM ([2]; Cell viability (Fig. S7a), XQ2 160000 nM): 6.84% | viability at 48 h, 320 µM ([2]; Cell viability (Fig. S7a), XQ2 320000 nM): 6.36% | Cell viability (Fig. S2e) ([3]; XQ2 0.16 μM): 87.186 and 98.2321 | Cell viability (Fig. S2e) ([3]; XQ2 0.31 μM): 93.9161 and 92.7457 | Cell viability (Fig. S2e) ([3]; XQ2 0.63 μM): 102.329 and 90.4779 | Cell viability (Fig. S2e) ([3]; XQ2 1.25 μM): 94.1356 and 101.451 | Cell viability (Fig. S2e) ([3]; XQ2 2.5 μM): 93.4772 and 103.426 | Cell viability (Fig. S2e) ([3]; XQ2 5 μM): 89.1612 and 96.4765 | Cell viability (Fig. S2e) ([3]; XQ2 10 μM): 102.841 and 97.9395 | IC50 ([3]; read-out: IC50, cell viability (CCK8), Fig. S7a, THP1, 48h): 24.3 ± 8.9 µM
